Drawing on ChEMBL document CHEMBL5550132, “Structure-activity relationship in NOD2 agonistic muramyl dipeptides” (Eur J Med Chem, 2024), this text covers Activity and fold change (FC) for 17 compounds.

The species entered for assay [1] is Cavia porcellus. Kind of assay: Induction of delayed type hypersensitivity in ABA-BSA immunized Hartley Guinea pigs assessed as reduction in skin lesions at 100 ug measured for 24 hrs. The format is functional. The conditions noted are these: dose 100 µg.
For assay [2], the species on record is Cavia porcellus. Put plainly: Induction of delayed type hypersensitivity in ABA-BSA immunized Hartley Guinea pigs assessed as reduction in skin lesions at 100 ug measured for 48 hrs. The assay is classed as functional. The conditions noted are these: dose 100 µg.
Assay [3] has as its target Nuclear factor NF-kappa-B complex (Homo sapiens) (UniProt Q00653+P19838+Q04206). Kind of assay: Activation of NF-KappaB (unknown origin) expressed in HEK293T cells assessed as fold change at 20 uM. The format is cell-based. The settings on record: filed as activator.

Chain of Nuclear factor NF-kappa-B complex (Homo sapiens) (P19838 whole entry, looked up): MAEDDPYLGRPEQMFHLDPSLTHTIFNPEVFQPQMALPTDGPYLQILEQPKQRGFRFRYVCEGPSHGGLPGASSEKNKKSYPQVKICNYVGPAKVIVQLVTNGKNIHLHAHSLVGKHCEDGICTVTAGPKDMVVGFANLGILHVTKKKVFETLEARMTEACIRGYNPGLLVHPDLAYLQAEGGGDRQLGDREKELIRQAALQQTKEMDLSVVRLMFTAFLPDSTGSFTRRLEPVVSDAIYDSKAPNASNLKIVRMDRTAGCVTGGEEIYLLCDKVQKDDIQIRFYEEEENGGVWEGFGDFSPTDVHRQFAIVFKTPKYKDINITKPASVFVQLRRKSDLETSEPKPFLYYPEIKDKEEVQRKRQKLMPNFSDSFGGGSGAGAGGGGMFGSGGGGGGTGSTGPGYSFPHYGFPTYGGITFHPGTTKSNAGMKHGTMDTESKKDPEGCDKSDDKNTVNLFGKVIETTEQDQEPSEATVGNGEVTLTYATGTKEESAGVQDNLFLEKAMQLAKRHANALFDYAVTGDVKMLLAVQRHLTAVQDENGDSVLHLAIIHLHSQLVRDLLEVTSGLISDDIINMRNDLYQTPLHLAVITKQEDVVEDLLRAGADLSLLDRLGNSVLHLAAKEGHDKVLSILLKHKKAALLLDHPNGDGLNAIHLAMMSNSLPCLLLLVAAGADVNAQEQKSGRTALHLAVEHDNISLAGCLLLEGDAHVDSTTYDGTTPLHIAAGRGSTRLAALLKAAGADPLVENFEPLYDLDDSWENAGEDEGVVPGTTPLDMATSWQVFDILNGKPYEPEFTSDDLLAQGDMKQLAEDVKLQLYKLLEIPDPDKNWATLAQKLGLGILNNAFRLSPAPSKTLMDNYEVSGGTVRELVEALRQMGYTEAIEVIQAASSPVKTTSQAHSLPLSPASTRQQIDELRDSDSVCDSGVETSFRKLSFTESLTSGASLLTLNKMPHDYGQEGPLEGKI
Chain of Nuclear factor NF-kappa-B complex (Homo sapiens) (Q00653 whole entry, looked up): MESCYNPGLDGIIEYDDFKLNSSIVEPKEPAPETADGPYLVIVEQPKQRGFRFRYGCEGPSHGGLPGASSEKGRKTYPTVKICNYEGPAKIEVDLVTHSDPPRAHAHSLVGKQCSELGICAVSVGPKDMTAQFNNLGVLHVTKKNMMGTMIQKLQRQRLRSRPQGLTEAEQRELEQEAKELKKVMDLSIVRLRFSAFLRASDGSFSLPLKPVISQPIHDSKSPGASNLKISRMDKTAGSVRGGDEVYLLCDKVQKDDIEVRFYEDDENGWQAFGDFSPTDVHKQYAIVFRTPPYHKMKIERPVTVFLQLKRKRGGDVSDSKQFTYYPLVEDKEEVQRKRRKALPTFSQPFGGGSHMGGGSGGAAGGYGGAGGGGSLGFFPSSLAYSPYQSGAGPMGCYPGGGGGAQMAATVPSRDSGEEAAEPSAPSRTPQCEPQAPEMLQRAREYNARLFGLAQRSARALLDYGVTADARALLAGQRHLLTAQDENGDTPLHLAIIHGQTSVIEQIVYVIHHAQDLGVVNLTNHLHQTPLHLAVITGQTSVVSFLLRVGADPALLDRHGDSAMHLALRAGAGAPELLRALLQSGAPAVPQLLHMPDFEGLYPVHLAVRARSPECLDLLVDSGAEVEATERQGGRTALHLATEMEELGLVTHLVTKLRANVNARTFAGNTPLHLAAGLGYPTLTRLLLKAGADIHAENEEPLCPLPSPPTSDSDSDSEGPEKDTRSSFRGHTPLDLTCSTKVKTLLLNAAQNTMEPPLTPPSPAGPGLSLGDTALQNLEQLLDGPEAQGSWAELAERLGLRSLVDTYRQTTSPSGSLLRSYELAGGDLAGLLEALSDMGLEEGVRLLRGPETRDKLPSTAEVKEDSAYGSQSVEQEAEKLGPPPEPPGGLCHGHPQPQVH
Chain of Nuclear factor NF-kappa-B complex (Homo sapiens) (Q04206 whole entry, looked up): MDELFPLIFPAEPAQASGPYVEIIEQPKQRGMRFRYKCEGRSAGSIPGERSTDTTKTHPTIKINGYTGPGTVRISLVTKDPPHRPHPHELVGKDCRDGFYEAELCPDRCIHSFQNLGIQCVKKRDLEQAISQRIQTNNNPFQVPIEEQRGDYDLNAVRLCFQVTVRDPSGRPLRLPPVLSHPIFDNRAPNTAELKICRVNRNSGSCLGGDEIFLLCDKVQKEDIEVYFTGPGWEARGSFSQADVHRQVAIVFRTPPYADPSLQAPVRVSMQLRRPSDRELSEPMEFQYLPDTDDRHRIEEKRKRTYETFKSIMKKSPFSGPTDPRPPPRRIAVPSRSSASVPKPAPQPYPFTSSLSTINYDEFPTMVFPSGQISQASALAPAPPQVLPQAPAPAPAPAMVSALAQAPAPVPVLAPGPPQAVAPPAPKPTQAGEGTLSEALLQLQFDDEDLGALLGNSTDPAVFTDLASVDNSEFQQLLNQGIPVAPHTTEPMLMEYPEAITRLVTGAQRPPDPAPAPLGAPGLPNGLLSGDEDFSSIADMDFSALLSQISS

Turning to `CC(=O)NC[C@H]1O[C@@H](O)[C@H](NC(C)=O)[C@@H](O[C@H](C)C(=O)N[C@@H](CO)C(=O)N[C@H](CCC(=O)O)C(N)=O)[C@@H]1O`, the Activity was 20.4 mm in assay [1] and 19.6 mm in assay [2].

For the compound `C[C@H](NC(=O)[C@@H](C)O[C@@H]1[C@@H](N)[C@H](O)O[C@H](CN)[C@H]1O)C(=O)N[C@H](CCC(=O)O)C(N)=O`, the Activity was found to be 15.1 mm in assay [1] and 9.3 mm in assay [2]. Regarding `CC(=O)N[C@@H]1[C@@H](O[C@H](C)C(=O)N[C@H](C(=O)N[C@H](CCC(=O)O)C(N)=O)C(C)C)[C@H](O)[C@@H](CN)O[C@H]1O`, the values for the Activity in assay [1] and in assay [2] were 20.4 mm and 15.3 mm, respectively. As to `C[C@H](NC(=O)[C@@H](C)O[C@H]1[C@H](O)[C@@H](CO)O[C@@H](O)[C@@H]1NC(=O)CN=[N+]=[N-])C(=O)N[C@H](CCC(=O)O)C(N)=O`, the fold change (FC) in assay [3] is 1.8. For the compound `C[C@H](NC(=O)[C@@H](C)O[C@H]1[C@H](O)[C@@H](CO)O[C@@H](O)[C@@H]1NC(=O)C(F)(F)F)C(=O)N[C@H](CCC(=O)O)C(N)=O`, the fold change (FC) in assay [3] is 1.9.

With `CCCCCCCCCCCCCCCCCC(=O)NC[C@H]1O[C@@H](O)[C@H](NC(C)=O)[C@@H](O[C@H](C)C(=O)N[C@@H](C)C(=O)N[C@H](CCC(=O)O)C(N)=O)[C@@H]1O`, the Activity in assay [1] is 20.5 mm; in assay [2], 15.8 mm.

`C[C@H](NC(=O)[C@@H](C)O[C@@H]1[C@@H](N)[C@H](O)O[C@H](CN)[C@H]1O)C(=O)N[C@H](CCC(=O)O)C(N)=O.Cl.Cl`: the values for the Activity in assay [1] and in assay [2] were 17.1 mm and 5.1 mm, respectively. For `CC(=O)OCC(=O)N[C@@H]1[C@@H](O[C@H](C)C(=O)N[C@@H](C)C(=O)N[C@H](CCC(=O)O)C(N)=O)[C@H](O)[C@@H](CO)O[C@H]1O`, the fold change (FC) in assay [3] is 2.2. For the compound `CC(=O)N[C@@H]1[C@@H](O[C@H](C)C(=O)N[C@@H](CO)C(=O)N[C@H](CCC(=O)O)C(N)=O)[C@H](O)[C@@H](CO)O[C@H]1O`, the Activity in assay [1] turned out to be 23.1 mm; in assay [2], 21.6 mm.

Turning to `CCCCCCCC(=O)NC[C@H]1O[C@@H](O)[C@H](NC(C)=O)[C@@H](O[C@H](C)C(=O)N[C@@H](C)C(=O)N[C@H](CCC(=O)O)C(N)=O)[C@@H]1O`, the values for the Activity in assay [1] and in assay [2] were 16.7 mm and 8.8 mm, respectively. Take `CC(=O)NC[C@H]1O[C@@H](O)[C@H](NC(C)=O)[C@@H](O[C@H](C)C(=O)N[C@@H](C)C(=O)N[C@H](CCC(=O)O)C(N)=O)[C@@H]1O`: the Activity in assay [1] is listed as 21.4 mm; in assay [2] it was 16.7 mm. The corresponding values for `CC(=O)NC[C@H]1O[C@@H](O)[C@H](NC(C)=O)[C@@H](O[C@H](C)C(=O)N[C@H](C(=O)N[C@H](CCC(=O)O)C(N)=O)C(C)C)[C@@H]1O` are 19.1 mm and 19.5 mm. For `CC(=O)N[C@@H]1[C@@H](O[C@H](C)C(=O)N[C@@H](CO)C(=O)N[C@H](CCC(=O)O)C(N)=O)[C@H](O)[C@@H](CN)O[C@H]1O`, the Activity in assay [1] is given as 21.6 mm; in assay [2], 22.3 mm. Regarding `CCCCCCCCCCCCCCCCCC(=O)NC[C@H]1O[C@@H](O)[C@H](N)[C@@H](O[C@H](C)C(=O)N[C@H](C(=O)N[C@H](CCC(=O)O)C(N)=O)C(C)C)[C@@H]1O`, in assay [1], the Activity was 4.3 mm. Take `CC(=O)N[C@@H]1[C@@H](O[C@H](C)C(=O)N[C@H](C(=O)N[C@H](CCC(=O)O)C(N)=O)C(C)C)[C@H](O)[C@@H](CO)O[C@H]1O`: the figures for the Activity in assay [1] and in assay [2] were 25.2 mm and 24.6 mm, respectively. On the same counts, the results for `CCCCCCCCCCCCCCCCCC(=O)NC[C@H]1O[C@@H](O)[C@H](NC(C)=O)[C@@H](O[C@H](C)C(=O)N[C@H](C(=O)N[C@H](CCC(=O)O)C(N)=O)C(C)C)[C@@H]1O` are 22.5 mm and 18.5 mm. Consider `CCCCCCCCCCCCCCCCCC(=O)N[C@@H]1[C@@H](O[C@H](C)C(=O)N[C@H](C(=O)N[C@H](CCC(=O)O)C(N)=O)C(C)C)[C@H](O)[C@@H](CN)O[C@H]1O`, for which the Activity in assay [1] is 10.5 mm.
